Reference: ChEMBL document CHEMBL5058564, “EUbOPEN Chemogenomics Library 2 (Incucyte)” (2022)
Where a SMILES comes first, the peptide text is derived from it. [ ]: non-standard residue; d: D form. Arg(Me) = CNC(=N)NCCC[C@H](N)C(=O)O; d3Pal = N[C@H](Cc1cccnc1)C(=O)O; azaGly = NNC(=O)O

What was measured:
Assay type in all cases: toxicity, cell-based
HEK-293T = test: Incucyte cell viability with HEK293T; conditions: human, 10 µM, compound concentration 10 uM
Fibroblast = test: Incucyte cell viability with human fibroblast; conditions: 10 µM, compound concentration 10 uM
U2OS = test: Incucyte cell viability with U2OS; conditions: human, 10 µM, compound concentration 10 uM
[1] = 0 h, replicate number 1, timepoint 0 hours
[2] = 0 h, replicate number 2, timepoint 0 hours
[3] = 6 h, replicate number 1, timepoint 6 hours
[4] = 6 h, replicate number 2, timepoint 6 hours
[5] = 12 h, replicate number 1, timepoint 12 hours
[6] = 12 h, replicate number 2, timepoint 12 hours
[7] = 18 h, replicate number 1, timepoint 18 hours
[8] = 18 h, replicate number 2, timepoint 18 hours
[9] = 24 h, replicate number 1, timepoint 24 hours
[10] = 24 h, replicate number 2, timepoint 24 hours
Further: unitless GR value; below 1 slowed growth and below 0 cell loss.

| Structure (SMILES) | Growth Rate (HEK-293T; [1]) | Growth Rate (HEK-293T; [2]) | Growth Rate (HEK-293T; [3]) | Growth Rate (HEK-293T; [5]) | Growth Rate (HEK-293T; [7]) | Growth Rate (HEK-293T; [8]) | Growth Rate (HEK-293T; [9]) | Growth Rate (HEK-293T; [10]) | Growth Rate (Fibroblast; [2]) | Growth Rate (Fibroblast; [3]) | Growth Rate (U2OS; [1]) | Growth Rate (U2OS; [2]) | Growth Rate (U2OS; [5]) | Growth Rate (U2OS; [6]) | Growth Rate (U2OS; [7]) | Growth Rate (U2OS; [8]) | Growth Rate (U2OS; [9]) | Growth Rate (Fibroblast; [5]) | Growth Rate (Fibroblast; [7]) | Growth Rate (U2OS; [3]) | further results |
| --- | --- | --- | --- | --- | --- | --- | --- | --- | --- | --- | --- | --- | --- | --- | --- | --- | --- | --- | --- | --- | --- |
| COc1ccc2nc3ccc(OC)cc3c(SCCCN)c2c1.Cl | -0.05 | -0.25 | -0.57 | -0.16 | 0.19 | 0.22 | 0.28 | 0.19 | 0.39 | 0.94 | -0.75 | -0.3 | 0.7 | 0.2 | 0.19 | 0.16 | 0.14 | – | – | – | Growth Rate (HEK-293T; [4]): 0.26; Growth Rate (HEK-293T; [6]): 0.33; Growth Rate (Fibroblast; [1]): 0.15; Growth Rate (U2OS; [10]): 0.21 |
| CC(C)C[C@@H](NC(=O)[C@H](Cc1ccccc1)NC(=O)CNC(=O)[C@@H](C)NC(=O)[C@@H](N)Cc1ccc(O)cc1)C(=O)O [DADLE] | 0.71 | 0.5 | 0.4 | 0.61 | 0.72 | 1 | 0.8 | 0.91 | -0.04 | – | – | 0.25 | – | 0.93 | – | 0.98 | – | 0.89 | – | – | Growth Rate (Fibroblast; [1]): 0.72; Growth Rate (U2OS; [4]): 0.82; Growth Rate (U2OS; [10]): 0.99 |
| CCCCCCCCc1ccc(CC[C@](N)(CO)COP(=O)(O)O)cc1 [FTY720-P] | – | 0.4 | -0.47 | -0.14 | 0.01 | 0.48 | 0.01 | 0.37 | – | 0.71 | 0.2 | -0.7 | 0.79 | – | – | 1 | – | 0.21 | 0.14 | 0.87 | Growth Rate (HEK-293T; [4]): 0.66; Growth Rate (HEK-293T; [6]): 0.46; Growth Rate (Fibroblast; [8]): 0.85; Growth Rate (Fibroblast; [9]): 0.09; Growth Rate (Fibroblast; [10]): 0.65; Growth Rate (U2OS; [4]): 0.43 |
| COc1cc(Br)c(S(=O)(=O)Nc2ccc(C(F)(F)F)c(O[C@@H]3CCN(C)C3)c2)cc1OC | 0.96 | – | – | – | – | 0.94 | – | – | – | -0.5 | – | -1 | – | – | 0.61 | 1 | 0.77 | -0.19 | -0.12 | 0.02 | Growth Rate (HEK-293T; [4]): 0.09; Growth Rate (HEK-293T; [6]): 0.38; Growth Rate (Fibroblast; [4]): -0.63; Growth Rate (Fibroblast; [6]): -0.22; Growth Rate (Fibroblast; [8]): 0.19; Growth Rate (Fibroblast; [9]): -0.01; Growth Rate (Fibroblast; [10]): 0.1 |
| CC(=O)c1cc(-c2ccccc2OCC2CC2)c2ncccn12 | 0.61 | – | – | – | 0.98 | – | – | – | 0.39 | – | 0.8 | 0.26 | – | – | 0.98 | – | 0.98 | – | – | 0.45 | Growth Rate (Fibroblast; [4]): 0.72; Growth Rate (Fibroblast; [6]): 0.88; Growth Rate (U2OS; [4]): 0.99 |
| COc1c(Nc2ccc(S(C)(=O)=O)nc2C)ncnc1OC1CCN(C(=O)OC(C)C)CC1 [ADP-597] | – | – | 0.29 | 0.45 | 0.51 | – | 0.74 | – | 0.94 | 0.72 | – | – | – | – | 0.98 | – | 1 | 0.53 | 0.34 | – | Growth Rate (Fibroblast; [6]): 0.7; Growth Rate (Fibroblast; [9]): 0.88 |
| O=C(O)c1cccc(/C=C2/C[C@@H]3[C@@H](/C=C/[C@H](O)C4CCCCC4)[C@H](O)C[C@@H]3O2)c1 | -0.12 | -0.26 | – | – | 0.98 | 1 | 0.9 | 0.92 | -0.06 | – | – | 0.48 | 0.59 | 0.94 | 0.9 | – | – | – | – | 0.65 | Growth Rate (Fibroblast; [1]): -0.51; Growth Rate (Fibroblast; [4]): 0.96; Growth Rate (Fibroblast; [6]): 0.77; Growth Rate (Fibroblast; [10]): 0.89; Growth Rate (U2OS; [4]): 0.71 |
| CNC(=N)NCCC[C@H](NC(=O)[C@H](CC(C)C)NC(=O)NNC(=O)[C@H](Cc1ccccc1)NC(=O)[C@H](CO)NC(=O)[C@H](CC(N)=O)NC(=O)[C@@H](Cc1cccnc1)NC(=O)[C@H](N)Cc1ccc(O)cc1)C(=O)NCC(N)=O [KISS1-543] (H-[dY][d3Pal]NSF[azaGly]L[Arg(Me)]G-NH2) | 0.75 | 0.71 | 0.69 | 0.68 | 0.68 | – | 0.71 | 0.84 | 0.66 | – | – | 0.72 | – | 0.89 | – | 0.99 | – | 0.41 | 0.5 | 0.84 | Growth Rate (Fibroblast; [4]): 0.8; Growth Rate (Fibroblast; [8]): 0.76; Growth Rate (Fibroblast; [9]): 0.46; Growth Rate (Fibroblast; [10]): 0.72; Growth Rate (U2OS; [10]): 1 |
| Cc1cc(CN)cc(C)c1-c1ncn(C)c1-c1cncn1C | 0.03 | -0.09 | – | 0.88 | – | – | 0.89 | – | -0.16 | 0.41 | -0.39 | 0.16 | 0.71 | 0.95 | 0.74 | – | 0.73 | – | – | 0.65 | Growth Rate (Fibroblast; [1]): 0.66; Growth Rate (U2OS; [4]): 0.66 |
| Cc1sc2c(c1C)C(c1ccc(Cl)cc1)=N[C@@H](CC(=O)NCCCCCCCCNC(=O)COc1cccc3c1C(=O)N(C1CCC(=O)NC1=O)C3=O)c1nnc(C)n1-2 (stereo not given in full) | – | 0.68 | 0.68 | 0.13 | 0.02 | -0.02 | 0.01 | -0.06 | – | -0.54 | -0.31 | – | 0.7 | 0.65 | 0.5 | 0.72 | 0.4 | -0.48 | -0.47 | 0.38 | Growth Rate (HEK-293T; [6]): 0.04; Growth Rate (Fibroblast; [1]): 0.46; Growth Rate (Fibroblast; [4]): -0.38; Growth Rate (Fibroblast; [6]): -0.2; Growth Rate (Fibroblast; [8]): -0.01; Growth Rate (Fibroblast; [9]): -0.37; Growth Rate (Fibroblast; [10]): -0.03; Growth Rate (U2OS; [10]): 0.7 |
| Cc1sc2c(c1C)C(c1ccc(Cl)cc1)=N[C@H](CC(=O)OC(C)(C)C)c1nnc(C)n1-2 | 0.38 | 0.63 | – | – | 0.85 | 0.87 | 0.81 | 0.86 | – | -0.25 | – | – | 0.95 | – | 0.97 | – | 0.92 | 0.45 | 0.98 | 0.83 | Growth Rate (HEK-293T; [6]): 0.95; Growth Rate (Fibroblast; [9]): 0.98 |
| CCCCCC(O)/C=C/[C@H]1C(=O)CC(O)C1C/C=C\CCCC(=O)O (stereo not given in full) | 0.99 | – | 0.68 | 0.59 | 0.69 | – | 0.58 | – | -0.28 | -0.61 | -0.23 | 0.05 | 0.59 | 0.84 | 0.66 | 0.78 | 0.72 | 0.36 | 0.47 | 0.59 | Growth Rate (Fibroblast; [1]): 0.39; Growth Rate (Fibroblast; [9]): 0.54; Growth Rate (U2OS; [10]): 0.87 |
| COc1ccc(CN(CCN(C)C)c2ccccn2)cc1 [PYRILAMINE] | – | – | – | 0.94 | – | – | – | – | 0.99 | 0.36 | 0.52 | – | – | – | – | 0.91 | 1 | – | – | – | Growth Rate (HEK-293T; [4]): 0.74; Growth Rate (HEK-293T; [6]): 0.74; Growth Rate (Fibroblast; [4]): 0.26; Growth Rate (U2OS; [10]): 0.96 |
| CC1(C)[C@H]2C[C@H](C/C=C\CCCC(=O)O)[C@@H](NC(=O)c3csc4ccc(O)cc34)[C@@H]1C2 | – | 0.67 | 0.73 | – | 0.94 | – | 0.85 | – | – | 0.09 | – | -0.79 | 0.14 | – | 0.37 | 0.81 | 0.66 | 0.51 | 0.69 | 0.23 | Growth Rate (Fibroblast; [6]): 0.75; Growth Rate (U2OS; [4]): 0.91; Growth Rate (U2OS; [10]): 0.86 |
